# Data taken from ChEMBL document CHEMBL3885861, “Open TG-GATES”.
# Organism: Rattus norvegicus
# Assay: Open TG-GATES - Regimen: Daily Repeat
# Format: toxicity, organism-based, Sprague-Dawley
# Set-up: regimen Daily Repeat, gender Male, age 6 weeks
# Conditions: in vivo, po, 0 mg/kg, route gavage, dose level Control; for APTT / Bas / Eos / Fbg / Hb / Ht / Lym / MCH / MCHC / MCV / Mono / Neu / PT / Plat / RBC / Ret / WBC: tissue Blood; for KIDNEY_L / KIDNEY_R / KIDNEY_TOTAL: tissue Kidney; for LIVER: tissue Liver; for A/G / ALP / ALT / AST / BUN / CRE / Ca / Cl / DBIL / GLC / IP / K / LDH / Na / PL / RALB / TBIL / TC / TG / TP / gamma-GTP: tissue Plasma
structure (smiles),measurement,setting,value
O=C(O)c1ccccc1Nc1ccccc1 [FENAMIC ACID],TERMINAL_BW,"72 h, time 3 day",237 g
same,APTT,"72 h, time 3 day",16.2 s
same,Bas,"72 h, time 3 day",0.4%
same,Eos,"72 h, time 3 day",1.2%
same,Fbg,"72 h, time 3 day",270.2 mg/dL
same,Hb,"72 h, time 3 day",13.9 g/dL
same,Ht,"72 h, time 3 day",41.7%
same,Lym,"72 h, time 3 day",75.2%
same,MCH,"72 h, time 3 day",20.9 pg
same,MCHC,"72 h, time 3 day",33.3%
same,MCV,"72 h, time 3 day",62.7 fL
same,Mono,"72 h, time 3 day",2.6%
same,Neu,"72 h, time 3 day",20.6%
same,PT,"72 h, time 3 day",14.3 s
same,Plat,"72 h, time 3 day",121.2 x10_4/uL
same,RBC,"72 h, time 3 day",664.6 x10_4/ul
same,Ret,"72 h, time 3 day",6.5%
same,WBC,"72 h, time 3 day",95.3 x10_2/uL
same,KIDNEY_L,"72 h, time 3 day",1 g
same,KIDNEY_R,"72 h, time 3 day",1 g
same,KIDNEY_TOTAL,"72 h, time 3 day",2 g
same,LIVER,"72 h, time 3 day",10.9 g
same,A/G,"72 h, time 3 day",0.9
same,ALP,"72 h, time 3 day",1663.4 IU/L
same,ALT,"72 h, time 3 day",35.4 IU/L
same,AST,"72 h, time 3 day",63.4 IU/L
same,BUN,"72 h, time 3 day",13.2 mg/dL
same,CRE,"72 h, time 3 day",0.2 mg/dL
same,Ca,"72 h, time 3 day",11.6 mg/dL
same,Cl,"72 h, time 3 day",106.8 meq/L
same,DBIL,"72 h, time 3 day",0.01 mg/dL
same,GLC,"72 h, time 3 day",185.8 mg/dL
same,IP,"72 h, time 3 day",7.2 mg/dL
same,K,"72 h, time 3 day",4.3 meq/L
same,LDH,"72 h, time 3 day",97.8 IU/L
same,Na,"72 h, time 3 day",143.8 meq/L
same,PL,"72 h, time 3 day",147.4 mg/dL
same,RALB,"72 h, time 3 day",2.7 g/dL
same,TBIL,"72 h, time 3 day",0.044 mg/dL
same,TC,"72 h, time 3 day",73.4 mg/dL
same,TG,"72 h, time 3 day",91.8 mg/dL
same,TP,"72 h, time 3 day",5.7 g/dL
same,gamma-GTP,"72 h, time 3 day",1.6 IU/L
same,TERMINAL_BW,"[…], time 7 day",271.7 g
same,TERMINAL_BW,"[…], time 14 day",334.6 g
same,TERMINAL_BW,"[…], time 28 day",425.8 g
same,APTT,"[…], time 7 day",16.2 s
same,Bas,"[…], time 7 day",0.8%
same,Eos,"[…], time 7 day",1%
same,Fbg,"[…], time 7 day",278.2 mg/dL
same,Hb,"[…], time 7 day",13.5 g/dL
same,Ht,"[…], time 7 day",40.3%
same,Lym,"[…], time 7 day",80.2%
same,MCH,"[…], time 7 day",20.5 pg
same,MCHC,"[…], time 7 day",33.5%
same,MCV,"[…], time 7 day",61 fL
same,Mono,"[…], time 7 day",2.2%
same,Neu,"[…], time 7 day",15.6%
same,PT,"[…], time 7 day",13.8 s
same,Plat,"[…], time 7 day",118.4 x10_4/uL
same,RBC,"[…], time 7 day",661.2 x10_4/ul
same,Ret,"[…], time 7 day",5.4%
same,WBC,"[…], time 7 day",84.5 x10_2/uL
same,APTT,"[…], time 14 day",16.3 s
same,Bas,"[…], time 14 day",0.4%
same,Eos,"[…], time 14 day",1%
same,Fbg,"[…], time 14 day",296.2 mg/dL
same,Hb,"[…], time 14 day",14.5 g/dL
same,Ht,"[…], time 14 day",42.3%
same,Lym,"[…], time 14 day",82.6%
same,MCH,"[…], time 14 day",20.2 pg
same,MCHC,"[…], time 14 day",34.2%
same,MCV,"[…], time 14 day",59.2 fL
same,Mono,"[…], time 14 day",1.8%
same,Neu,"[…], time 14 day",14.2%
same,PT,"[…], time 14 day",14.1 s
same,Plat,"[…], time 14 day",112.2 x10_4/uL
same,RBC,"[…], time 14 day",714.8 x10_4/ul
same,Ret,"[…], time 14 day",4%
same,WBC,"[…], time 14 day",73.8 x10_2/uL
same,APTT,"[…], time 28 day",15.8 s
same,Bas,"[…], time 28 day",0.2%
same,Eos,"[…], time 28 day",1%
same,Fbg,"[…], time 28 day",296 mg/dL
same,Hb,"[…], time 28 day",14.9 g/dL
same,Ht,"[…], time 28 day",43%
same,Lym,"[…], time 28 day",79.2%
same,MCH,"[…], time 28 day",19.4 pg
same,MCHC,"[…], time 28 day",34.6%
same,MCV,"[…], time 28 day",55.9 fL
same,Mono,"[…], time 28 day",1.6%
same,Neu,"[…], time 28 day",17.2%
same,PT,"[…], time 28 day",14.2 s
same,Plat,"[…], time 28 day",104.1 x10_4/uL
same,RBC,"[…], time 28 day",768.8 x10_4/ul
same,Ret,"[…], time 28 day",2.7%
same,WBC,"[…], time 28 day",92.6 x10_2/uL
same,KIDNEY_L,"[…], time 7 day",1.1 g
same,KIDNEY_R,"[…], time 7 day",1.1 g
same,KIDNEY_TOTAL,"[…], time 7 day",2.2 g
same,KIDNEY_L,"[…], time 14 day",1.3 g
same,KIDNEY_R,"[…], time 14 day",1.3 g
same,KIDNEY_TOTAL,"[…], time 14 day",2.5 g
same,KIDNEY_L,"[…], time 28 day",1.5 g
same,KIDNEY_R,"[…], time 28 day",1.5 g
same,KIDNEY_TOTAL,"[…], time 28 day",2.9 g
same,LIVER,"[…], time 7 day",12.7 g
same,LIVER,"[…], time 14 day",14.7 g
same,LIVER,"[…], time 28 day",17 g
same,A/G,"[…], time 7 day",0.9
same,ALP,"[…], time 7 day",1493 IU/L
same,ALT,"[…], time 7 day",38 IU/L
same,AST,"[…], time 7 day",68.4 IU/L
same,BUN,"[…], time 7 day",14.2 mg/dL
same,CRE,"[…], time 7 day",0.2 mg/dL
same,Ca,"[…], time 7 day",11.4 mg/dL
same,Cl,"[…], time 7 day",106.2 meq/L
same,DBIL,"[…], time 7 day",0.01 mg/dL
same,GLC,"[…], time 7 day",190.4 mg/dL
same,IP,"[…], time 7 day",6.7 mg/dL
same,K,"[…], time 7 day",4.3 meq/L
same,LDH,"[…], time 7 day",105 IU/L
same,Na,"[…], time 7 day",143.2 meq/L
same,PL,"[…], time 7 day",148.4 mg/dL
same,RALB,"[…], time 7 day",2.6 g/dL
same,TBIL,"[…], time 7 day",0.03 mg/dL
same,TC,"[…], time 7 day",73 mg/dL
same,TG,"[…], time 7 day",119.4 mg/dL
same,TP,"[…], time 7 day",5.7 g/dL
same,gamma-GTP,"[…], time 7 day",1 IU/L
same,A/G,"[…], time 14 day",0.8
same,ALP,"[…], time 14 day",1698.4 IU/L
same,ALT,"[…], time 14 day",36 IU/L
same,AST,"[…], time 14 day",63.2 IU/L
same,BUN,"[…], time 14 day",13.8 mg/dL
same,CRE,"[…], time 14 day",0.3 mg/dL
same,Ca,"[…], time 14 day",11.2 mg/dL
same,Cl,"[…], time 14 day",105.2 meq/L
same,DBIL,"[…], time 14 day",0.004 mg/dL
same,GLC,"[…], time 14 day",184 mg/dL
same,IP,"[…], time 14 day",7.1 mg/dL
same,K,"[…], time 14 day",4 meq/L
same,LDH,"[…], time 14 day",78.2 IU/L
same,Na,"[…], time 14 day",144 meq/L
same,PL,"[…], time 14 day",143.2 mg/dL
same,RALB,"[…], time 14 day",2.7 g/dL
same,TBIL,"[…], time 14 day",0.032 mg/dL
same,TC,"[…], time 14 day",68.6 mg/dL
same,TG,"[…], time 14 day",108.6 mg/dL
same,TP,"[…], time 14 day",5.9 g/dL
same,gamma-GTP,"[…], time 14 day",1 IU/L
same,A/G,"[…], time 28 day",0.8
same,ALP,"[…], time 28 day",1171.8 IU/L
same,ALT,"[…], time 28 day",32.4 IU/L
same,AST,"[…], time 28 day",58.2 IU/L
same,BUN,"[…], time 28 day",14.8 mg/dL
same,CRE,"[…], time 28 day",0.3 mg/dL
same,Ca,"[…], time 28 day",11.1 mg/dL
same,Cl,"[…], time 28 day",105.2 meq/L
same,DBIL,"[…], time 28 day",0.006 mg/dL
same,GLC,"[…], time 28 day",192.8 mg/dL
same,IP,"[…], time 28 day",6.9 mg/dL
same,K,"[…], time 28 day",4 meq/L
same,LDH,"[…], time 28 day",104 IU/L
same,Na,"[…], time 28 day",144.4 meq/L
same,PL,"[…], time 28 day",133.8 mg/dL
